Publication PMC6449605, “Pyrophosphate Stimulates the Phosphate-Sodium Symporter of Trypanosoma brucei Acidocalcisomes and Saccharomyces cerevisiae Vacuoles” (mSphere, 2019)

Assays:
Pho91p = biological target: T1, Pho91p (Saccharomyces cerevisiae, UniProt P27514); test: two-electrode voltage clamp, Xenopus oocytes; type: cell-based; settings: ND96, room temperature
T1 construct: gene PHO91; full length, cRNA expressed in Xenopus laevis oocytes
T1 sequence (P27514 1-894): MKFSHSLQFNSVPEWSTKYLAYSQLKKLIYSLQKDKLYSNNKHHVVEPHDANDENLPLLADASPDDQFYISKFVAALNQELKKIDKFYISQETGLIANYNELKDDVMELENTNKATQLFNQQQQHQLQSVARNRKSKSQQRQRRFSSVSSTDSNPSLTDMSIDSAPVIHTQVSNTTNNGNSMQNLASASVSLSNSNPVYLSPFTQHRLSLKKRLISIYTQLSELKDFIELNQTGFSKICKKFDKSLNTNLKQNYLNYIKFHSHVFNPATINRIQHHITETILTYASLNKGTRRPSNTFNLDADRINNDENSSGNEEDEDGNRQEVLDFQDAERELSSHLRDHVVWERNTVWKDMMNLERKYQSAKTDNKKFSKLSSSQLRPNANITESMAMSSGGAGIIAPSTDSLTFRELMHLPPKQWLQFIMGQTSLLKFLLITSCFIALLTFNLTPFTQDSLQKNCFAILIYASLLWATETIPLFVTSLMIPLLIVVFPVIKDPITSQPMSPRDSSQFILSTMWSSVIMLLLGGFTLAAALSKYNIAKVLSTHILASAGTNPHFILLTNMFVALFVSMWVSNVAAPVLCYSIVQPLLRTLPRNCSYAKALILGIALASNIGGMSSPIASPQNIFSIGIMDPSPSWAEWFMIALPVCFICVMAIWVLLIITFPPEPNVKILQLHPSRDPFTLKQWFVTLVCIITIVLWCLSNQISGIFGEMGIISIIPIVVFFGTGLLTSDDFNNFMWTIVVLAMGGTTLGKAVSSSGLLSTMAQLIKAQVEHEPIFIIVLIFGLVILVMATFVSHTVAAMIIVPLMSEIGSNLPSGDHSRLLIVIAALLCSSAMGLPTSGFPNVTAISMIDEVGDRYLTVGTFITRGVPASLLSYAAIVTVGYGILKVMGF

TbPho91 = biological target: T2, TbPho91 (Trypanosoma brucei, UniProt Q383G2); test: two-electrode voltage clamp, Xenopus oocytes; type: cell-based; settings: activator, modulates 10 mM Pi-evoked current; ND96 pH 7.5; room temperature
T2 construct: full length, cRNA expressed in Xenopus laevis oocytes (also in giant vacuoles of pho91-delta yeast)
T2 sequence (Q383G2 1-728): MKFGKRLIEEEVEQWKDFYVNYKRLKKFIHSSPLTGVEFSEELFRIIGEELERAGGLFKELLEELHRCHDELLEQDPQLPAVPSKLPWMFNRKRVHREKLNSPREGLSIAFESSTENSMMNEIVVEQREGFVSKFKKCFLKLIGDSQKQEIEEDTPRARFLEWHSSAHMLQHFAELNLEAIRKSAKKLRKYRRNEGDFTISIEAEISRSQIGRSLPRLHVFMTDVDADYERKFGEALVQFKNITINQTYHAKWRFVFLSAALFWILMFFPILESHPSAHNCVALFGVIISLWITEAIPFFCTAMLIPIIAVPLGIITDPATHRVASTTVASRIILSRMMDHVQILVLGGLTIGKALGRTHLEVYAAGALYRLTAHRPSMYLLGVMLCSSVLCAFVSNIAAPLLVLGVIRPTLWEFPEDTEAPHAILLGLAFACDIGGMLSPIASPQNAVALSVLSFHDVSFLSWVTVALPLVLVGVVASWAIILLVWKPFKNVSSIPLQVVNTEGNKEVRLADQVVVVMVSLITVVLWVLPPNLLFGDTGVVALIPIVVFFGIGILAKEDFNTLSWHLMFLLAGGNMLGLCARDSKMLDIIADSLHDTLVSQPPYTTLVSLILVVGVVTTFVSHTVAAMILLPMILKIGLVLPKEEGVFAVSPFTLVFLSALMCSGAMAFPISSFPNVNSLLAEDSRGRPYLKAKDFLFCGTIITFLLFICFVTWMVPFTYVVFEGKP

Compound: O=P(O)(O)OP(=O)(O)O [PPi]
- inward current amplitude at 10 mM (Pho91p; activator, 10 mM Na+/PPi): 447.8 ± 84.1 nA

Compound: O=P(O)(O)O [Pi]
- inward current amplitude at 10 mM (Pho91p; 10 mM Na+/Pi, Na+ co-transported): 146.8 ± 41.6 nA

Compound: O=P(O)(O)OP(=O)(O)OP(=O)(O)O [polyP3]
- inward current amplitude at 10 mM (Pho91p; activator, 10 mM Na+/polyP3): 771.6 ± 168.4 nA
- threshold for significant amplification of Na+/Pi current (TbPho91): 200 µM
